Results taken from patent US20200163332A1, “METHOD OF IMPROVING CROP SAFETY” (Bayer CropScience LP, priority 2017, published 2020).
Where “and” joins values, the source holds several entries; their conditions need not be identical. Identical values can stand only once. Like-named read-outs stand apart in the source and are kept apart here.

What was measured:
[1] = tested on: Soybean seeds of the variety Williams 82; details: for Average Area (Total Leaf Area) / Average Height (Plant Height): 15 Days after Planting
Protocol: Plant heights and total leaf area were determined 15 days after planting. The total leaf area was calculated by adding the unifoliate leaf area and the trifoliate leaf area of a soybean plant. Between 11 and 15 replicates were evaluated for each measurement. Average values along with their standard errors are reported.

[2] = tested on: Soybean seeds of the variety Williams 82; details: with ILEVO 0.15 mg ai per seed, versus ILEVO alone, CaCl2•2 H2O 10.000 mM, about 10 days after planting
Protocol: All solutions were pH adjusted to pH 5.6-6.2. In addition, a seed treatment was prepared with a cobalt and molybdenum combination (“CoMo”) containing the cobalt chloride and sodium molybdate applied at the respective doses shown in Table 9. A commercial zinc solution was also applied as a seed treatment. “Macro”, “Micro” and “Complete” nutrient solution cocktails which combined all the respective nutrients from Table 9 into one nutrient solution were included as seed treatments.
About 10 days after planting the treated seeds, the emerging seedlings were analyzed to determine their average plant height and average unifoliate leaf area.

[3] = tested on: Soybean seeds of the variety Williams 82; experiment: Example A: soybean seed treatment with antioxidants, with or without Fluopyram; cotyledon total and healthy area; details: for Average Cotyledon Area (mm^2) Growth Promotion with Antioxidant / Increase in Healthy Area % Difference: antioxidant at effective concentration versus no antioxidant; for Average Cotyledon Area / Average % Healthy Area / Average Healthy Area: after 10 days
[4] = ILEVO 0.15 mg ai per seed + 10 mM CaCl2•2 H2O
[5] = ILEVO 0.15 mg ai per seed + 75 mM CaCl2•2 H2O
[6] = ILEVO 0.15 mg ai per seed + 150 mM CaCl2•2 H2O
[7] = calcium chloride added to ILEVO seed treatment versus ILEVO alone, effect increased at higher concentrations
[8] = two additional soybean varieties besides Williams 82
[9] = UTC seeds (no FLU) plus antioxidant at effective concentration (Beta-Carotene 200 μM, Co-enzyme Q10 3 μM, Meso-Zeaxanthin 250 ppm, L-ascorbic acid 800 ppm, alpha tocopherol phosphate disodium 100 ppm)
[10] = UTC seeds (no FLU) plus antioxidant at effective concentration (as in E7)
[11] = seeds treated with FLU 0.15 mg ai/seed plus antioxidant at effective concentration (200 μM, 3 μM, 250 ppm, 800 ppm, 100 ppm as in E4)
[12] = seeds treated with FLU 0.15 mg ai/seed plus antioxidant at effective concentration (Beta-Carotene 200 μM, Co-enzyme Q10 3 μM, Meso-Zeaxanthin 250 ppm, L-ascorbic acid 800 ppm, alpha tocopherol phosphate disodium 100 ppm)
[13] = FLU 0.15 mg ai/seed alone (antioxidant 0 μM / 0 ppm; control of the respective antioxidant series)

| Molecule | Average Cotyledon Area (mm^2) Growth Promotion with Antioxidant ([3]; FLU-treated seeds) [mm^2] | Increase in Healthy Area % Difference ([3]; FLU-treated seeds) [%] | Average Cotyledon Area [3, 9] [mm^2] | Average % Healthy Area [3, 10] [%] | Average Healthy Area [3, 10] [mm^2] | Average Cotyledon Area (mm^2) Growth Promotion with Antioxidant ([3]; UTC seeds (no FLU)) [mm^2] | Increase in Healthy Area % Difference ([3]; UTC seeds (no FLU)) [%] | Average % Healthy Area [3, 11] [%] | Average Healthy Area [3, 11] [mm^2] | Average Cotyledon Area [3, 12] [mm^2] | other results |
| --- | --- | --- | --- | --- | --- | --- | --- | --- | --- | --- | --- |
| [Ca+2].[Cl-].[Cl-] [CaCl2•2 H2O, calcium chloride] | – | – | – | – | – | – | – | – | – | – | Average Area (Total Leaf Area) [1, 4]: 46.70 cm^2; Average Height (Plant Height) [1, 4]: 12.93 cm; Average Area (Total Leaf Area) [1, 5]: 53.89 cm^2; Average Height (Plant Height) [1, 5]: 13.69 cm; Average Area (Total Leaf Area) [1, 6]: 53.03 cm^2; Average Height (Plant Height) [1, 6]: 14.31 cm; height of the soybean plants [1, 7]: significantly increased; total leaf area of the soybean plants [1, 7]: significantly increased; effect on height of soybean plants treated with ILEVO [1, 8]: positive effect; effect on leaf area of soybean plants treated with ILEVO [1, 8]: positive effect; average plant height ([2]; FIG. 1): significantly increased; average unifoliate leaf area ([2]; FIG. 2): significantly increased |
| COC1=C(OC)C(=O)C(C/C=C(\C)CC/C=C(\C)CC/C=C(\C)CC/C=C(\C)CC/C=C(\C)CC/C=C(\C)CC/C=C(\C)CC/C=C(\C)CC/C=C(\C)CCC=C(C)C)=C(C)C1=O [Co-enzyme Q10] | 19.49 | 10.25 | 416.55 | 100.00 | 416.55 | 47.57 | 0.00 | 76.54 | 240.72 | 312.31 | – |
| O=C(NCCc1ncc(C(F)(F)F)cc1Cl)c1ccccc1C(F)(F)F [FLU, Fluopyram, reference compound] | – | – | – | – | – | – | – | – | – | – | Average % Healthy Area [3, 13]: 59.63% and 67.93% and 68.20% and 60.08% and 66.29%; Average Cotyledon Area [3, 13]: 252.85 mm^2 and 307.56 mm^2 and 290.71 mm^2 and 237.73 mm^2 and 292.81 mm^2; Average Healthy Area [3, 13]: 153.20 mm^2 and 210.37 mm^2 and 199.35 mm^2 and 142.71 mm^2 and 195.10 mm^2 |
| Meso-Zeaxanthin | 78.23 | 10.05 | 350.59 | 99.66 | 349.18 | 30.66 | 4.59 | 69.68 | 230.46 | 331.07 | – |
